Laboratory results taken from patent publication US20240353410A1, “FRET ENZYMATIC SUBSTRATE AND USES THEREOF IN LIVER CANCER” (URTESTE S.A., priority 2021, published 2024).
“And” between values parts separate entries of the source, which are not always exact repeats. Identical values can stand only once. *1 amine or outer side, *2 acyl side, *3 side chain or, on linkers, in order; H or OH if unused. Where no end group is shown, it is not given here. [ ]: non-standard residue; d: D form. Benzoyl(5-NH,2-NO2) = O=C(c1cc(N[*:1])ccc1[N+](=O)[O-])[*:2]; 2Abz = Nc1ccccc1C(=O)O

How the values were obtained:
Assay type in all cases: biochemical, human
[1] = test system: proteolytic enzymes in urine from a subject suffering from liver cancer; experiment: Hydrolysis of the chromogenic substrate in urine from subjects with liver cancer (absorbance at 405 nm); details: for Results of absorbance analysis (increase in absorbance, 405 nm): 37° C., 60 minutes, pH 8.0
Protocol: (§1) The activity of the novel compounds according to the invention was studied in a group of 20 subjects diagnosed with liver cancer using the representative compound according to the invention. […] The remaining compounds according to the invention are characterized by the analogous mechanism of action. For this purpose, the representative compound according to the invention, ABZ^1-Lys^2-Ser^3-Ser^4-Asp^5-ANB^6-NH2, was dissolved in dimethyl sulfoxide (at a concentration of 0.5 mg/mL) and then 50 μL of the solution was mixed with 120 μL of a buffer (200 mM Tris-HCl, pH 8.0) and 80 μL of urine from a subject suffering from liver cancer. The measurement was performed on a 96-well plate designed for measuring absorbance and each sample was analysed in triplicate at the temperature of 37° C. The duration of the measurement was 60 minutes. During the measurement, the wavelength characteristic for the chromophore (ANB-NH2) being released was monitored at the wavelength 405 nm (range 380-430 nm).
The observed magnitude of increase in absorbance in time is different for each of the examined samples.
Such a result may be due to the difference in the activity as well as the amount of enzymes responsible for the enzymatic cleavage (proteolysis). […] The result indicates the […] of proteolytic enzymes characteristic of liver cancer.

[2] = test system: urine samples taken from healthy persons; experiment: Hydrolysis of the chromogenic substrate in urine from healthy subjects (absorbance at 405 nm); details: for Results of absorbance analysis (increase in absorbance, 405 nm): triplicate
[3] = test system: urine samples from patients with another neoplastic disease; experiment: Cleavage selectivity: substrate incubated with urine from patients with other cancers; details: for Measurement 1-3 (increase in absorbance): urine, triplicate
Protocol: as §1
Furthermore, the dependence of the cleavage selectivity of the substrate, i.e. the compound according to the invention, on the cancer being examined, was studied. […] This indicates cleavage selectivity of the compounds according to the invention, which makes them suitable for the specific detection of enzymatic activity specific to liver cancer and specific diagnosis of liver cancer.

[4] = test system: enzyme in the studied material (urine); experiment: Dependence of substrate hydrolysis on reaction pH; details: FIG. 4
Protocol: Furthermore, measurements concerning the dependence of the proteolytic activity of the representative compound according to the invention on the reaction pH were performed.

[5] = test system: urine taken from a person diagnosed with liver cancer; experiment: RP HPLC analysis of substrate cleavage in urine with liver cancer; details: randomly selected urine from a person diagnosed with liver cancer

Q: “ABZ-Lys-Ser-Ser-Asp-ANB-NH2 ([2Abz]KSSD-{Benzoyl(5-NH,2-NO2)-NH2}) [chromogenic/FRET peptide substrate; ABZ is 2-aminobenzoic acid, ANB-NH2 is amide of 5-amino-2-nitrobenzoic acid]” was tested. Which “Cleavage of the substrate in urine” value ([1]; all samples 1-20 from persons suffering from liver cancer) did it give?
A: underwent cleavage

Q: And the “Results of absorbance analysis (increase in absorbance, 405 nm)” value (shortened to “Results … (increase in absorbance, 405 nm)”) ([1]; urine sample W1, liver cancer, triplicate)?
A: 0.03221 and 0.03351 and 0.02109

Q: What about the “Results … (increase in absorbance, 405 nm)” value ([1]; urine sample W2, liver cancer, triplicate) of the same substance?
A: 0.02276 and 0.02037 and 0.02884

Q: And the “Results … (increase in absorbance, 405 nm)” value ([1]; urine sample W4, liver cancer, triplicate)?
A: 0.02897 and 0.02718 and 0.02812

Q: And the “Results … (increase in absorbance, 405 nm)” value ([1]; urine sample W5, liver cancer, triplicate)?
A: 0.171 and 0.1445 and 0.1684

Q: What about the “Results … (increase in absorbance, 405 nm)” value ([1]; urine sample W6, liver cancer, triplicate) of the same substance?
A: 0.02035 and 0.01966 and 0.02513

Q: And the “Results … (increase in absorbance, 405 nm)” value ([1]; urine sample W8, liver cancer, triplicate)?
A: 0.0186 and 0.0199 and 0.01818

Q: And the “Results … (increase in absorbance, 405 nm)” value ([1]; urine sample W9, liver cancer, triplicate)?
A: 0.0313 and 0.02635 and 0.0275

Q: What about the “Results … (increase in absorbance, 405 nm)” value ([1]; urine sample W10, liver cancer, triplicate) of the same substance?
A: 0.04583 and 0.03322 and 0.03755

Q: What about the “Results … (increase in absorbance, 405 nm)” value ([1]; urine sample W11, liver cancer, triplicate) of the same substance?
A: 0.02091 and 0.01156 and 0.01536

Q: And the “Results … (increase in absorbance, 405 nm)” value ([1]; urine sample W12, liver cancer, triplicate)?
A: 0.03055 and 0.02126 and 0.0183

Q: And the “Results … (increase in absorbance, 405 nm)” value ([1]; urine sample W13, liver cancer, triplicate)?
A: 0.01583 and 0.01383 and 0.01431

Q: And the “Results … (increase in absorbance, 405 nm)” value ([1]; urine sample W14, liver cancer, triplicate)?
A: 0.00394 and 0.00525 and 0.00441

Q: What about the “Results … (increase in absorbance, 405 nm)” value ([1]; urine sample W15, liver cancer, triplicate) of the same substance?
A: 0.01622 and 0.01718 and 0.01233

Q: And the “Results … (increase in absorbance, 405 nm)” value ([1]; urine sample W16, liver cancer, triplicate)?
A: 0.01265 and 0.01251 and 0.00722

Q: What about the “Results … (increase in absorbance, 405 nm)” value ([1]; urine sample W17, liver cancer, triplicate) of the same substance?
A: 0.0012 and 0.0018 and 0.0015

Q: And the “Results … (increase in absorbance, 405 nm)” value ([1]; urine sample W18, liver cancer, triplicate)?
A: 0.01937 and 0.01539 and 0.01955

Q: What about the “Results … (increase in absorbance, 405 nm)” value ([1]; urine sample W19, liver cancer, triplicate) of the same substance?
A: 0.0091 and 0.0093 and 0.0089

Q: And the “Results … (increase in absorbance, 405 nm)” value ([1]; urine sample W20, liver cancer, triplicate)?
A: 0.1528 and 0.1867 and 0.1909

Q: What about the “Measurement 1-3 (increase in absorbance)” value ([1]; urine, cancer location Liver, selectivity test of Table 2, triplicate) of the same substance?
A: 0.0067 and 0.0072 and 0.0056

Q: And the “Results … (increase in absorbance, 405 nm)” value ([2]; urine sample 21, healthy person)?
A: 0.000000

Q: What about the “Results … (increase in absorbance, 405 nm)” value ([2]; urine sample 22, healthy person) of the same substance?
A: 0.000000

Q: And the “Results … (increase in absorbance, 405 nm)” value ([2]; urine sample 23, healthy person)?
A: 0.000000

Q: What about the “Results … (increase in absorbance, 405 nm)” value ([2]; urine sample 24, healthy person) of the same substance?
A: 0.000000

Q: And the “Results … (increase in absorbance, 405 nm)” value ([2]; urine sample 25, healthy person)?
A: 0.000000

Q: What about the “Results … (increase in absorbance, 405 nm)” value ([2]; urine sample 26, healthy person) of the same substance?
A: 0.000000

Q: What about the “Results … (increase in absorbance, 405 nm)” value ([2]; urine sample 27, healthy person) of the same substance?
A: 0.000000

Q: What about the “Results … (increase in absorbance, 405 nm)” value ([2]; urine sample 28, healthy person) of the same substance?
A: 0.000000

Q: What about the “Results … (increase in absorbance, 405 nm)” value ([2]; urine sample 29, healthy person) of the same substance?
A: 0.000000

Q: What about the “Results … (increase in absorbance, 405 nm)” value ([2]; urine sample 30, healthy person) of the same substance?
A: 0.000000

Q: And the “Results … (increase in absorbance, 405 nm)” value ([2]; urine sample 31, healthy person)?
A: 0.000000

Q: And the “Results … (increase in absorbance, 405 nm)” value ([2]; urine sample 32, healthy person)?
A: 0.000000

Q: And the “Results … (increase in absorbance, 405 nm)” value ([2]; urine sample 33, healthy person)?
A: 0.000000

Q: And the “Results … (increase in absorbance, 405 nm)” value ([2]; urine sample 34, healthy person)?
A: 0.000000

Q: What about the “Results … (increase in absorbance, 405 nm)” value ([2]; urine sample 35, healthy person) of the same substance?
A: 0.000000

Q: And the “Results … (increase in absorbance, 405 nm)” value ([2]; urine sample 36, healthy person)?
A: 0.000000

Q: What about the “Results … (increase in absorbance, 405 nm)” value ([2]; urine sample 37, healthy person) of the same substance?
A: 0.000000

Q: And the “Results … (increase in absorbance, 405 nm)” value ([2]; urine sample 38, healthy person)?
A: 0.000000

Q: And the “Results … (increase in absorbance, 405 nm)” value ([2]; urine sample 39, healthy person)?
A: 0.000000

Q: And the “Results … (increase in absorbance, 405 nm)” value ([2]; urine sample 40, healthy person)?
A: 0.000000

Q: And the “Increase in absorbance / hydrolysis in urine” value ([2]; urine samples 21 to 40 from healthy persons)?
A: does not lead to an increase in absorbance

Q: And the “Cleavage / increase in absorbance in urine of other cancers” value ([3]; testicular, intestine, kidney, prostate, pancreatic, bile duct, lung, ovarian and rectum cancer)?
A: is not subject to cleavage

Q: And the “Measurement 1-3 (increase in absorbance)” value ([3]; cancer location Intestine)?
A: 0

Q: And the “Measurement 1-3 (increase in absorbance)” value ([3]; cancer location Kidney)?
A: 0

Q: And the “Measurement 1-3 (increase in absorbance)” value ([3]; cancer location Lung)?
A: 0

Q: And the “Measurement 1-3 (increase in absorbance)” value ([3]; cancer location Ovary)?
A: 0

Q: And the “Measurement 1-3 (increase in absorbance)” value ([3]; cancer location Pancreas)?
A: 0

Q: What about the “Measurement 1-3 (increase in absorbance)” value ([3]; cancer location Prostate) of the same substance?
A: 0

Q: What about the “Measurement 1-3 (increase in absorbance)” value ([3]; cancer location Rectum) of the same substance?
A: 0

Q: And the “Measurement 1-3 (increase in absorbance)” value ([3]; cancer location Testicle)?
A: 0

Q: And the “Measurement 1-3 (increase in absorbance)” value ([3]; cancer location bile ducts)?
A: 0

Q: What about the “Dependence of hydrolysis level on pH” value [4] of the same substance?
A: maximum activity at alkaline pH

Q: And the “Cleavage products of the substrate (RP HPLC)” value [5]?
A: cleaves into the peptide fragment ABZ-Lys-Ser-Ser-Asp-OH and the chromophore group of the compound (ANB-NH2)
